Reference: patent EP1206258B1, “COMPOSITIONS CONTAINING ESTERS FOR TREATING PARASITIC INFESTATIONS OF ORGANISMS” (priority 1999, dated 2001)

Columns and labels:
Assay type in all cases: cell-based
Rhizopus arrhizus = assay: growth inhibition test on SAB agar, R. arrhizus
Procedure: (§1) The antifungal activity of ethyl trans-cinnamate against a number of different fungi was investigated by means of in a simple growth inhibition test.
(§2) The following quantities of Ethyl trans-Cinnamate were added to Sabourand Dextrose agar (SAB); 50 ml L^-1, 4ml L^-1, 2ml L^-1, 1ml L^-1, 400 µl L^-1, 200 µl L^-1 and 40 µl L^-1. […] These were then autoclaved and poured into standard Petri dishes. […] Duplicate plates of each concentration, plus control plates containing only SAB Agar, where then separately inoculated with, four different species of fungi, these were Aspergillus nidulans, Penicillium digitatum, Rhizopus arrhizus and Fusarium culmorum. Inoculation was carried out using a single stab at the centre of each Petri dish. The plates were then incubated at 30°C for 6 days and daily measurements of mycobial growth where taken every 24 hours.

Aspergillus nidulans = assay: growth inhibition test on SAB agar, A. nidulans; conditions: 50ml L-^1 and higher doses; further experiments, data not shown
Fusarium culmorum = assay: growth inhibition test on SAB agar, F. culmorum
Procedure: as §1, §2

[1] = 50ml L-^1 and higher doses, further experiments, data not shown

CCOC(=O)/C=C/c1ccccc1 [trans-cinnamic acid ethyl ester]
Level of Radial Growth (mm) of R. arrhizus (Rhizopus arrhizus; 1ml L^-1, Day 1): 8.5 mm | Level of Radial Growth (mm) of R. arrhizus (Rhizopus arrhizus; 1ml L^-1, Day 2): 45.0 mm | Level of Radial Growth (mm) of R. arrhizus (Rhizopus arrhizus; 1ml L^-1, Day 3): 45.0 mm | Level of Radial Growth (mm) of R. arrhizus (Rhizopus arrhizus; 1ml L^-1, Day 4): 45.0 mm | Level of Radial Growth (mm) of R. arrhizus (Rhizopus arrhizus; 1ml L^-1, Day 5): 45.0 mm | Level of Radial Growth (mm) of R. arrhizus (Rhizopus arrhizus; 1ml L^-1, Day 6): 45.0 mm | Level of Radial Growth (mm) of R. arrhizus (Rhizopus arrhizus; 2ml L^-1, Day 1): 1. mm | Level of Radial Growth (mm) of R. arrhizus (Rhizopus arrhizus; 2ml L^-1, Day 2): 45.0 mm | Level of Radial Growth (mm) of R. arrhizus (Rhizopus arrhizus; 2ml L^-1, Day 3): 45.0 mm | Level of Radial Growth (mm) of R. arrhizus (Rhizopus arrhizus; 2ml L^-1, Day 4): 45.0 mm | Level of Radial Growth (mm) of R. arrhizus (Rhizopus arrhizus; 2ml L^-1, Day 5): 45.0 mm | Level of Radial Growth (mm) of R. arrhizus (Rhizopus arrhizus; 2ml L^-1, Day 6): 45.0 mm | Level of Radial Growth (mm) of R. arrhizus (Rhizopus arrhizus; 4ml L^-1, Day 1): 0 mm | Level of Radial Growth (mm) of R. arrhizus (Rhizopus arrhizus; 4ml L^-1, Day 2): 23.5 mm | Level of Radial Growth (mm) of R. arrhizus (Rhizopus arrhizus; 4ml L^-1, Day 3): 45.0 mm | Level of Radial Growth (mm) of R. arrhizus (Rhizopus arrhizus; 4ml L^-1, Day 4): 45.0 mm | Level of Radial Growth (mm) of R. arrhizus (Rhizopus arrhizus; 4ml L^-1, Day 5): 45.0 mm | Level of Radial Growth (mm) of R. arrhizus (Rhizopus arrhizus; 4ml L^-1, Day 6): 45.0 mm | Level of Radial Growth (mm) of R. arrhizus (Rhizopus arrhizus; 40µl L^-1, Day 1): 26.0 mm | Level of Radial Growth (mm) of R. arrhizus (Rhizopus arrhizus; 40µl L^-1, Day 2): 45.0 mm | Level of Radial Growth (mm) of R. arrhizus (Rhizopus arrhizus; 40µl L^-1, Day 3): 45.0 mm | Level of Radial Growth (mm) of R. arrhizus (Rhizopus arrhizus; 40µl L^-1, Day 4): 45.0 mm | Level of Radial Growth (mm) of R. arrhizus (Rhizopus arrhizus; 40µl L^-1, Day 5): 45.0 mm | Level of Radial Growth (mm) of R. arrhizus (Rhizopus arrhizus; 40µl L^-1, Day 6): 45.0 mm | duration of complete inhibition of growth (Rhizopus arrhizus; [1]): at least 8 days | inhibition of growth (Rhizopus arrhizus; 50ml L-^1 level): complete inhibition of growth | Level of Radial Growth (mm) of R. arrhizus (Rhizopus arrhizus; 50 ml L^-1, Day 1): 0 mm | Level of Radial Growth (mm) of R. arrhizus (Rhizopus arrhizus; 50 ml L^-1, Day 2): 0 mm | Level of Radial Growth (mm) of R. arrhizus (Rhizopus arrhizus; 50 ml L^-1, Day 3): 0 mm | Level of Radial Growth (mm) of R. arrhizus (Rhizopus arrhizus; 50 ml L^-1, Day 4): 0 mm | Level of Radial Growth (mm) of R. arrhizus (Rhizopus arrhizus; 50 ml L^-1, Day 5): 0 mm | Level of Radial Growth (mm) of R. arrhizus (Rhizopus arrhizus; 50 ml L^-1, Day 6): 0 mm | Level of Radial Growth (mm) of R. arrhizus (Rhizopus arrhizus; 200µl L^-1, Day 1): 18.0 mm | Level of Radial Growth (mm) of R. arrhizus (Rhizopus arrhizus; 200µl L^-1, Day 2): 45.0 mm | Level of Radial Growth (mm) of R. arrhizus (Rhizopus arrhizus; 200µl L^-1, Day 3): 45.0 mm | Level of Radial Growth (mm) of R. arrhizus (Rhizopus arrhizus; 200µl L^-1, Day 4): 45.0 mm | Level of Radial Growth (mm) of R. arrhizus (Rhizopus arrhizus; 200µl L^-1, Day 5): 45.0 mm | Level of Radial Growth (mm) of R. arrhizus (Rhizopus arrhizus; 200µl L^-1, Day 6): 45.0 mm | Level of Radial Growth (mm) of R. arrhizus (Rhizopus arrhizus; 400µl L^-1, Day 1): 14.5 mm | Level of Radial Growth (mm) of R. arrhizus (Rhizopus arrhizus; 400µl L^-1, Day 2): 45.0 mm | Level of Radial Growth (mm) of R. arrhizus (Rhizopus arrhizus; 400µl L^-1, Day 3): 45.0 mm | Level of Radial Growth (mm) of R. arrhizus (Rhizopus arrhizus; 400µl L^-1, Day 4): 45.0 mm | Level of Radial Growth (mm) of R. arrhizus (Rhizopus arrhizus; 400µl L^-1, Day 5): 45.0 mm | Level of Radial Growth (mm) of R. arrhizus (Rhizopus arrhizus; 400µl L^-1, Day 6): 45.0 mm | duration of complete inhibition of growth (Aspergillus nidulans): at least 8 days | Level of Radial Growth (mm) of F. culmorum (Fusarium culmorum; 1ml L^-1, Day 1): 0 mm | Level of Radial Growth (mm) of F. culmorum (Fusarium culmorum; 1ml L^-1, Day 2): 0 mm | Level of Radial Growth (mm) of F. culmorum (Fusarium culmorum; 1ml L^-1, Day 3): 0 mm | Level of Radial Growth (mm) of F. culmorum (Fusarium culmorum; 1ml L^-1, Day 4): 0 mm | Level of Radial Growth (mm) of F. culmorum (Fusarium culmorum; 1ml L^-1, Day 5): 0 mm | Level of Radial Growth (mm) of F. culmorum (Fusarium culmorum; 1ml L^-1, Day 6): 0 mm | Level of Radial Growth (mm) of F. culmorum (Fusarium culmorum; 2ml L^-1, Day 1): 0 mm | Level of Radial Growth (mm) of F. culmorum (Fusarium culmorum; 2ml L^-1, Day 2): 0 mm | Level of Radial Growth (mm) of F. culmorum (Fusarium culmorum; 2ml L^-1, Day 3): 0 mm | Level of Radial Growth (mm) of F. culmorum (Fusarium culmorum; 2ml L^-1, Day 4): 0 mm | Level of Radial Growth (mm) of F. culmorum (Fusarium culmorum; 2ml L^-1, Day 5): 0 mm | Level of Radial Growth (mm) of F. culmorum (Fusarium culmorum; 2ml L^-1, Day 6): 0 mm | Level of Radial Growth (mm) of F. culmorum (Fusarium culmorum; 4ml L^-1, Day 1): 0 mm | Level of Radial Growth (mm) of F. culmorum (Fusarium culmorum; 4ml L^-1, Day 2): 0 mm | Level of Radial Growth (mm) of F. culmorum (Fusarium culmorum; 4ml L^-1, Day 3): 0 mm | Level of Radial Growth (mm) of F. culmorum (Fusarium culmorum; 4ml L^-1, Day 4): 0 mm | Level of Radial Growth (mm) of F. culmorum (Fusarium culmorum; 4ml L^-1, Day 5): 0 mm | Level of Radial Growth (mm) of F. culmorum (Fusarium culmorum; 4ml L^-1, Day 6): 0 mm | Level of Radial Growth (mm) of F. culmorum (Fusarium culmorum; 40µl L^-1, Day 1): 0 mm | Level of Radial Growth (mm) of F. culmorum (Fusarium culmorum; 40µl L^-1, Day 2): 0 mm | Level of Radial Growth (mm) of F. culmorum (Fusarium culmorum; 40µl L^-1, Day 3): 1 mm | Level of Radial Growth (mm) of F. culmorum (Fusarium culmorum; 40µl L^-1, Day 4): 1 mm | Level of Radial Growth (mm) of F. culmorum (Fusarium culmorum; 40µl L^-1, Day 5): 2 mm | Level of Radial Growth (mm) of F. culmorum (Fusarium culmorum; 40µl L^-1, Day 6): 6 mm | duration of complete inhibition of growth (Fusarium culmorum; [1]): at least 8 days | inhibition of growth (Fusarium culmorum; 50ml L-^1 level): complete inhibition of growth | Level of Radial Growth (mm) of F. culmorum (Fusarium culmorum; 50 ml L^-1, Day 1): 0 mm | Level of Radial Growth (mm) of F. culmorum (Fusarium culmorum; 50 ml L^-1, Day 2): 0 mm | Level of Radial Growth (mm) of F. culmorum (Fusarium culmorum; 50 ml L^-1, Day 3): 0 mm | Level of Radial Growth (mm) of F. culmorum (Fusarium culmorum; 50 ml L^-1, Day 4): 0 mm | Level of Radial Growth (mm) of F. culmorum (Fusarium culmorum; 50 ml L^-1, Day 5): 0 mm | Level of Radial Growth (mm) of F. culmorum (Fusarium culmorum; 50 ml L^-1, Day 6): 0 mm | Level of Radial Growth (mm) of F. culmorum (Fusarium culmorum; 200µl L^-1, Day 1): 0 mm | Level of Radial Growth (mm) of F. culmorum (Fusarium culmorum; 200µl L^-1, Day 2): 0 mm | Level of Radial Growth (mm) of F. culmorum (Fusarium culmorum; 200µl L^-1, Day 3): 0 mm | Level of Radial Growth (mm) of F. culmorum (Fusarium culmorum; 200µl L^-1, Day 4): 1 mm | Level of Radial Growth (mm) of F. culmorum (Fusarium culmorum; 200µl L^-1, Day 5): 2 mm | Level of Radial Growth (mm) of F. culmorum (Fusarium culmorum; 200µl L^-1, Day 6): 6 mm | Level of Radial Growth (mm) of F. culmorum (Fusarium culmorum; 400µl L^-1, Day 1): 0 mm | Level of Radial Growth (mm) of F. culmorum (Fusarium culmorum; 400µl L^-1, Day 2): 0 mm | Level of Radial Growth (mm) of F. culmorum (Fusarium culmorum; 400µl L^-1, Day 3): 0 mm | Level of Radial Growth (mm) of F. culmorum (Fusarium culmorum; 400µl L^-1, Day 4): 1 mm | Level of Radial Growth (mm) of F. culmorum (Fusarium culmorum; 400µl L^-1, Day 5): 2 mm | Level of Radial Growth (mm) of F. culmorum (Fusarium culmorum; 400µl L^-1, Day 6): 6 mm
